{"source": "patent US7220576B2", "about": "“Methods and compositions for protein expression and purification” (Lifesensors, Inc., priority 2002, dated 2007)", "key": {"Ulp1 Hydrolase": {"molecular_target": "T1, Ulp1 Hydrolase (Saccharomyces cerevisiae, UniProt Q02724)", "T1 construct": "C-terminal His-tagged SUMO hydrolase/protease Ulp (403–621)p (21) (27) was expressed from pET24d; His tag (C); made in house; host or cells: E. coli Rosetta (DE3) pLysS, vector pET24d", "T1 sequence (Q02724 403-621)": "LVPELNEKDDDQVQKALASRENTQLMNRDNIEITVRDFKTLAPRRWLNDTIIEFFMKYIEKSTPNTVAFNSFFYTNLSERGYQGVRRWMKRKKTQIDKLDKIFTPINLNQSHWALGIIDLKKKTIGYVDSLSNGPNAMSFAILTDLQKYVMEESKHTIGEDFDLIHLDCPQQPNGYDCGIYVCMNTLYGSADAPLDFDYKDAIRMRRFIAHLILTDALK", "assay": "In vitro Ulp1 cleavage of His6SUMO-GFP under various additives/conditions", "format": "biochemical, yeast", "details": "for Ulp1 activity remaining: 0.5 M Gdm HCl, hydrochloride", "experimental": "Ni-NTA purified His6SUMO-GFP was incubated with Ulp1 under the indicated conditions for one hour at room temperature unless indicated otherwise. Low molecular weight markers (LMW) are also provided.\nNi-NTA purified His6SUMO-GFP was incubated with Ulp1 and 10 mM of various protease inhibitors for 1 hour at room temperature. Lane markers: Norm is addition of Ulp1 and N-ethymaleimide (NEM) to the substrate at the same time, Pre is the incubation of Ulp1 with NEM prior to the addition of substrate, +Ve is the absence of any inhibitor, −Ve is in the absence of Ulp1, lane 1 is with E-64, lane 2 is with EDTA, lane 3 is with leupeptin, lane 4 is with NEM, lane 5 is with pepstatin, lane 6 is with TLCK. Low molecular weight markers (LMW) are also provided.\nThe effects of various additives/conditions and temperature upon the in vitro cleavage reaction were determined as follows: His6smt3MeGFP was expressed from pET24d in Rosetta (DE3) pLysS (Novagen). The recombinant protein was purified as before using Ni-NTA agarose (Qiagen) and then buffer exchanged into 20 mM Tris-HCl pH 8.0, 150 mM NaCl and 5 mM β-mercaptoethanol using a PD-10 column (AP Biotech). Cleavage reactions were performed with 100 ug of the purified protein, 0.5 ul of enzyme, the appropriate amount of a stock solution of additive to generate the final concentrations listed in Table 4, plus the exchange buffer up to a final volume of 200 ul. Reactions were incubated for 1 hour at 37° C. except for those at 4° C. were incubated for 3 hours. […] Generally, His tagged proteins are purified on nickel columns and eluted with imidazole."}, "SUMO hydrolase Ulp1": {"molecular_target": "T2, SUMO hydrolase Ulp1 (Saccharomyces cerevisiae, UniProt Q02724)", "T2 construct": "C-terminal His-tagged SUMO hydrolase/protease Ulp (403–621)p (21) (27) was expressed from pET24d; His tag (C); made in house; host or cells: E. coli Rosetta (DE3) pLysS, vector pET24d", "T2 sequence (Q02724 403-621)": "T1 sequence (Q02724 403-621)", "assay": "In vitro cleavage of purified SUMO fusion proteins by SUMO hydrolase Ulp1", "format": "biochemical, yeast"}, "E. coli [1]": {"tested_on": "E. coli", "assay": "Soluble versus insoluble fraction of fusion proteins expressed in E. coli", "format": "cell-based", "experimental": "E. coli were harvested by mild centrifugation and washed once with PBS buffer. Cells were resuspended in 4 ml of PBS and ruptured by several pulses of sonication. Unbroken cells were removed by mild centrifugation (5 min at 1500×g) and supernatants were sonicated again to ensure complete cell lysis. An aliquot (5 μl) was mixed with 2% SDS to ensure that no viscosity is detected owing to lysis of unbroken cells. After ensuring that no unbroken cells remained in the lysate, insoluble material consisting of cell walls, inclusion bodies and membrane fragments was sedimented by centrifugation (18,000×g for 10 min). The supernatant was considered “Soluble fraction”.\nThe pellets were washed from any remaining soluble proteins, lipids and peptidoglycan as follows. Pellets were resuspended in 600 μl of PBS and to the suspensions 600 μl of solution containing 3 M urea and 1% Tri ton X100 was added. The suspension was briefly vortexed and insoluble material was collected by centrifugation as above. […]\nHuman nuclear receptor proteins, such as steroid receptors, contain ligand-binding domains. […] The ligand-binding domain of LXR was expressed as SUMO fusion in Rosetta plysS cell at 20° C. or 37° C. and the pattern of soluble and insoluble protein was analyzed. […] The original induced culture (I), supernatant from lysed cells (S) and resuspended pellet (P) were analyzed on 12% SDS-PAGE. […]"}, "E. coli [2]": {"tested_on": "E. coli", "assay": "GFP fluorescence in soluble fractions of E. coli", "format": "cell-based", "details": "37° C., approx. 0.1 mg soluble protein, Ex 485 nm/Em 510 nm", "experimental": "GFP fluorescence was measured in soluble fractions (approx. 0.1 mg of soluble protein in a final volume of 40 μl) using Fluoroscan Accent FL fluorometer (LabSystems) with Excitation 485 nm/Emission 510 nm filter set with the exposure set to 40 sec. The data are presented in Arbitrary Units (AU).\nThe design and construction of all the UBL E. coli expression vectors has been described above. The DNA sequences, accession numbers of the UBL-GFP fusion proteins, and translation frames are shown FIGS. 25–32. […] Un-fused GFP is generally poorly expressed in E. coli. […] Induced cells were broken by sonication and soluble proteins were analyzed on SDS-polyacrylamide gels. […] To determine if the fusion proteins were folded correctly, we determined the fluorescence properties of proteins in the soluble fraction."}, "[3]": {"details": "protease inhibitors, 10 mM per FIG. 17 legend"}}, "note": "Several values for one entry are separate records, joined by “and”; a condition that tells them apart may be missing. Identical values can stand only once. Entries after “also recorded” stand apart in the source; their conditions may differ. Non-standard residues stand in square brackets, D forms with d. Residues, ends and D or L forms follow the SMILES beside them. *: point of attachment. Sta = CC(C)C[C@H](N)[C@@H](O)CC(=O)O; Isovaleryl = CC(C)CC(=O)*"}
{"compound": "CC(=O)N[C@@H](CC(C)C)C(=O)N[C@@H](CC(C)C)C(=O)N[C@H](C=O)CCCNC(=N)N", "note": "[Leupeptin]", "values": [{"measurement": "Effect of protease inhibitor on Ulp1 hydrolase activity", "setting": "Ulp1 Hydrolase; [3]", "result": "no effect; also recorded: like specificity; no affect"}]}
{"compound": "Triton-X", "values": [{"measurement": "Effect on Ulp1 hydrolase activity", "setting": "Ulp1 Hydrolase; up to 1% triton X 100", "result": "highly active"}]}
{"compound": "CC(C)CC(=O)N[C@H](C(=O)N[C@H](C(=O)N[C@@H](CC(C)C)[C@@H](O)CC(=O)N[C@@H](C)C(=O)N[C@@H](CC(C)C)[C@@H](O)CC(=O)O)C(C)C)C(C)C", "note": "[Pepstatin] (Isovaleryl-VV[Sta]A[Sta]-OH)", "values": [{"measurement": "Effect of protease inhibitor on Ulp1 hydrolase activity", "setting": "Ulp1 Hydrolase; [3]", "result": "no effect; also recorded: Aspartate protease inhibitor; no affect"}]}
{"compound": "CCN1C(=O)C=CC1=O", "note": "[N-ethylmaleimide]", "values": [{"measurement": "Effect of protease inhibitor on Ulp1 hydrolase activity", "setting": "Ulp1 Hydrolase; enzyme preincubated with inhibitor before addition of substrate, listed as N-ethymaleimide", "result": "active"}]}
{"compound": "c1c[nH]cn1", "note": "[Imidazole]", "values": [{"measurement": "Effect on Ulp1 hydrolase activity", "setting": "Ulp1 Hydrolase; imidazole 0 to 300 mM", "result": "Ulp1 shows similar activity in the range of"}, {"measurement": "Effect on Ulp1 hydrolase activity", "setting": "Ulp1 Hydrolase; imidazole 0 to 300 mM, listed as imidazole", "result": "remarkably active"}]}
{"compound": "CCCCCCCCCCCCOS(=O)(=O)[O-].[Na+]", "note": "[SDS]", "values": [{"measurement": "Effect on Ulp1 hydrolase activity", "setting": "Ulp1 Hydrolase; 0.01% SDS", "result": "highly active and 0.01% SDS blocks activity"}]}
{"compound": "SUMO-β-galactosidase: SUMO fusion of E. coli β-galactosidase, a 110 KDa protein (SEQ ID NO: 31)", "values": [{"measurement": "Share of protein cleaved by SUMO hydrolase", "setting": "SUMO hydrolase Ulp1; 20 minutes, room temperature", "result": 100, "unit": "%"}]}
{"compound": "CC(C)C[C@H](NC(=O)[C@H]1O[C@@H]1C(=O)O)C(=O)NCCCCN=C(N)N", "note": "[E-64]", "values": [{"measurement": "Effect of protease inhibitor on Ulp1 hydrolase activity", "setting": "Ulp1 Hydrolase; [3]", "result": "Cysteine protease inhibitor; no affect"}]}
{"compound": "SUMO-GFP: SUMO fused to N-terminus of GFP (SEQ ID NO: 5)", "values": [{"measurement": "Solubility of UBL-GFP fusion (soluble panel of stained gel)", "setting": "E. coli [1]; 26° C. overnight, FIG. 4B", "result": "able to solubilize fused GFP"}, {"measurement": "Solubility of UBL-GFP fusion (soluble panel of stained gel)", "setting": "E. coli [1]; 37° C., FIG. 4A", "result": "able to solublize the GFP"}, {"measurement": "GFP fluorescence of soluble fraction (correct folding)", "setting": "E. coli [2]", "result": "able to fluoresce"}, {"measurement": "In vitro cleavage by Ulp1 / SUMO hydrolase", "setting": "SUMO hydrolase Ulp1; purified fusion protein from E. coli", "result": "completely digested"}]}
{"compound": "O=C(O)CN(CCN(CC(=O)O)CC(=O)O)CC(=O)O", "note": "[EDTA]", "values": [{"measurement": "Effect of protease inhibitor on Ulp1 hydrolase activity", "setting": "Ulp1 Hydrolase; [3]", "result": "no effect; also recorded: Metalloprotease inhibitor; no affect"}]}
{"compound": "Cc1ccc(S(=O)(=O)N[C@@H](CCCCN)C(=O)CCl)cc1.Cl", "note": "[TLCK-HCl]", "values": [{"measurement": "Effect of protease inhibitor on Ulp1 hydrolase activity", "setting": "Ulp1 Hydrolase; [3]", "result": "chymotrypsin-like specificity; no affect"}, {"measurement": "Effect of protease inhibitor on Ulp1 hydrolase activity", "setting": "Ulp1 Hydrolase; protease inhibitors, 10 mM per FIG. 17 legend, listed as TLCK", "result": "no effect"}]}
{"compound": "Cl.N=C(N)N", "note": "[Gdm HCl, guanadinium hydrochloride]", "values": [{"measurement": "Ulp1 activity remaining", "setting": "Ulp1 Hydrolase", "result": "Ulp1 shows 50% activity in 0.5 M but is completely"}, {"measurement": "Ulp1 activity remaining", "setting": "Ulp1 Hydrolase; listed as guanadinium hydrochloride", "result": 50, "unit": "%"}, {"measurement": "Effect on Ulp1 hydrolase activity", "setting": "Ulp1 Hydrolase; 1 M Gdm HCl", "result": "inactive in 1 M concentrations"}]}
{"compound": "NC(N)=O", "note": "[Urea]", "values": [{"measurement": "Effect on Ulp1 hydrolase activity", "setting": "Ulp1 Hydrolase; urea up to and including 2 M, listed as urea", "result": "did not effect the activity; also recorded: does not inhibit the hydrolase"}]}
{"compound": "O=S(=O)(F)Cc1ccccc1", "note": "[PMSF]", "values": [{"measurement": "Effect of protease inhibitor on Ulp1 hydrolase activity", "setting": "Ulp1 Hydrolase; [3]", "result": "no effect; also recorded: Serine protease inhibitor; no affect"}]}
